EPA's ToxRefDB 2

What was measured:
[1] = system: rat; details: Prenatal developmental toxicity study, sprague dawley, Oral, Gavage/Intubation, dose end: 15 GD
[2] = system: rabbit; details: Prenatal developmental toxicity study, new zealand white, Oral, Gavage/Intubation, dose end: 18 GD
[3] = system: rat; details: Subchronic dermal toxicity, sprague dawley, Topical, dose end: 13 week, group: systemic, systemic / in life observation / body weight / body weight + systemic / in life observation / food consumption / food consumption + systemic…
[4] = system: rat; details: Multigenerational reproductive toxicity study, sprague dawley, Oral, Feed, dose end: 2 generation
[5] = system: mouse; details: Carcinogenicity, cd1, Oral, Feed, dose end: 78 week, group: systemic
[6] = system: rat; details: Subchronic oral toxicity in rodents, other, [Not Specified], dose end: 13 week, group: systemic
[7] = system: rabbit; details: Prenatal developmental toxicity study, new zealand white, Oral, Gavage/Intubation, dose end: 19 GD
[8] = system: rat; details: Combined chronic toxicity/carcinogenicity, other, Oral, Feed, dose end: 100 week, group: systemic
[9] = system: dog; details: Chronic toxicity, beagle, Oral, Capsule, dose end: 52 week, group: systemic
[10] = system: rat; details: Prenatal developmental toxicity study, sprague dawley, Oral, Gavage/Intubation, dose end: 15 GD; remark: listed apart in the source
[11] = group: developmental, developmental / developmental malformation / bone / fused
[12] = group: developmental, developmental / developmental malformation / bone / fused + developmental / developmental malformation / bone / [other] + developmental / …
[13] = group: maternal, systemic / in life observation / body weight / body weight gain + systemic / in life observation / clinical signs / salivation + …
[14] = group: developmental, developmental / developmental malformation / general / [other]
[15] = group: maternal, reproductive / reproductive performance / postimplantation loss / postimplantation loss + systemic / in life observation / food consumption…
[16] = group: offspring, developmental / offspring survival late / viability index / viability index
[17] = group: offspring, developmental / offspring survival late / viability index / viability index + systemic / in life observation / body weight / offspring (pup…
[18] = group: parental, systemic / in life observation / body weight / body weight + systemic / in life observation / mortality / mortality + systemic / pathology …
[19] = group: reproductive, reproductive / offspring survival early / birth index / live birth index
[20] = systemic / pathology microscopic / liver / vacuolization
[21] = systemic / pathology microscopic / liver / vacuolization + systemic / in life observation / body weight / body weight gain + systemic / …
[22] = systemic / urinalysis / ph / ph
[23] = group: developmental, developmental / developmental malformation / bone / irregular ossification + developmental / developmental malformation / bone / misshapen …
[24] = group: maternal, systemic / in life observation / body weight / body weight gain + systemic / in life observation / food consumption / food consumption + …
[25] = systemic / pathology gross / adrenal gland / enlarged
[26] = systemic / clinical chemistry / alanine aminotransferase (alt/sgpt) / alanine aminotransferase (alt/sgpt) + systemic / clinical chemistry / …
[27] = systemic / in life observation / body weight / body weight gain
[28] = group: developmental, developmental / developmental malformation / bone / full supernumerary
[29] = group: maternal, systemic / in life observation / body weight / body weight gain

**Q.** `[O-][n+]1ccccc1[S-].[O-][n+]1ccccc1[S-].[Zn+2]` [Zinc pyrithione] was tested. Which LEL [1, 11] did it give?
**A.** 3 mg/kg/day

**Q.** And the LOAEL [1, 11]?
**A.** 3 mg/kg/day

**Q.** And the NEL [1, 12]?
**A.** 0.75 mg/kg/day

**Q.** And the NOAEL [1, 12]?
**A.** 0.75 mg/kg/day

**Q.** What about the LOAEL ([1]; group: maternal, systemic / in life observation / body weight / body weight gain + systemic / in life observation / clinical signs / salivation) of the same compound?
**A.** 3 mg/kg/day

**Q.** And the LEL [1, 13]?
**A.** 3 mg/kg/day

**Q.** What about the NEL [1, 13] of the same compound?
**A.** 0.75 mg/kg/day

**Q.** What about the NOAEL [1, 13] of the same compound?
**A.** 0.75 mg/kg/day

**Q.** What about the LEL [2, 14] of the same compound?
**A.** 3 mg/kg/day

**Q.** What about the LOAEL [2, 14] of the same compound?
**A.** > 3 mg/kg/day

**Q.** What about the NEL [2, 14] of the same compound?
**A.** 1.5 mg/kg/day

**Q.** What about the NOAEL [2, 14] of the same compound?
**A.** ≥ 3 mg/kg/day

**Q.** And the LEL [2, 15]?
**A.** 1.5 mg/kg/day

**Q.** What about the LOAEL [2, 15] of the same compound?
**A.** 1.5 mg/kg/day

**Q.** And the NEL [2, 15]?
**A.** 0.5 mg/kg/day

**Q.** What about the NOAEL [2, 15] of the same compound?
**A.** 0.5 mg/kg/day

**Q.** And the LEL [3]?
**A.** 1000 mg/kg/day

**Q.** What about the LOAEL [3] of the same compound?
**A.** 1000 mg/kg/day

**Q.** And the NEL [3]?
**A.** 100 mg/kg/day

**Q.** And the NOAEL [3]?
**A.** 100 mg/kg/day

**Q.** Which results are given for `CC1(C)CC/C(=C\c2ccc(Cl)cc2)C1(O)Cn1cncn1` (centres undefined) [Triticonazole]?
**A.** LEL [4, 16]: 0.25 mg/kg/day; NEL [4, 16]: < 0.25 mg/kg/day; LOAEL [4, 17]: 250 mg/kg/day; NOAEL [4, 17]: 37.5 mg/kg/day; LOAEL [4, 18]: 250 mg/kg/day; NOAEL [4, 18]: 37.5 mg/kg/day; NEL ([4]; group: parental, systemic / in life observation / body weight / body weight + systemic / pathology microscopic / adrenal gland / vacuolization + systemic / …): 1.25 mg/kg/day; LEL ([4]; group: parental, systemic / organ weight / adrenal gland / absolute): 37.5 mg/kg/day; LEL [4, 19]: 0.25 mg/kg/day; NEL [4, 19]: < 0.25 mg/kg/day; LOAEL ([4]; group: reproductive, reproductive / reproductive performance / fertility / fertility): 250 mg/kg/day; NOAEL ([4]; group: reproductive, reproductive / reproductive performance / fertility / fertility + reproductive / offspring survival early / birth index / live birth index…): 37.5 mg/kg/day; NEL [5, 20]: 17.4 mg/kg/day; NOAEL [5, 20]: 17.4 mg/kg/day; LEL [5, 21]: 202 mg/kg/day; LOAEL [5, 21]: 202 mg/kg/day; LOAEL ([6]; systemic / pathology microscopic / adrenal gland / vacuolization): 19.8 mg/kg/day; NOAEL ([6]; systemic / pathology microscopic / adrenal gland / vacuolization + systemic / clinical chemistry / alkaline phosphatase (alp/alk) / alkaline…): 2 mg/kg/day; LEL [6, 22]: 2.2 mg/kg/day; NEL [6, 22]: < 2.2 mg/kg/day; LEL [7, 23]: 75 mg/kg/day; LOAEL [7, 23]: 75 mg/kg/day; NEL [7, 23]: 50 mg/kg/day; NOAEL [7, 23]: 50 mg/kg/day; LEL [7, 24]: 50 mg/kg/day; LOAEL [7, 24]: 50 mg/kg/day; NEL [7, 24]: 25 mg/kg/day; NOAEL [7, 24]: 25 mg/kg/day; LEL [8, 25]: 0.2 mg/kg/day; NEL [8, 25]: < 0.2 mg/kg/day; LOAEL ([8]; systemic / pathology microscopic / adrenal gland / inflammation + systemic / in life observation / body weight / body weight + systemic / in…): 287 mg/kg/day; NOAEL ([8]; systemic / pathology microscopic / adrenal gland / inflammation + systemic / pathology microscopic / adrenal gland / atypia nuclear): 38.3 mg/kg/day; LOAEL [9, 26]: 150 mg/kg/day; NOAEL [9, 26]: 25 mg/kg/day; LEL [9, 27]: 2.5 mg/kg/day; NEL [9, 27]: < 2.5 mg/kg/day; LEL [10, 28]: 1000 mg/kg/day; LOAEL [10, 28]: 1000 mg/kg/day; NEL [10, 28]: 200 mg/kg/day; NOAEL [10, 28]: 200 mg/kg/day; LEL [10, 29]: 1000 mg/kg/day; LOAEL [10, 29]: 1000 mg/kg/day; NEL [10, 29]: 200 mg/kg/day; NOAEL [10, 29]: 200 mg/kg/day
